Laboratory results published in ChEMBL document CHEMBL5113403, “Design, synthesis, and biological evaluation of novel pyrazolo [3,4-d]pyrimidine derivatives as potent PLK4 inhibitors for the treatment of TRIM37-amplified breast cancer” (Eur J Med Chem, 2022).

Key:
[1] = target: Serine/threonine-protein kinase PAK 4 (Homo sapiens, UniProt O96013); assay: Inhibition of PAK4 (unknown origin) incubated for 60 mins by time-resolved HTRF assay
MCF7 [2] = assay: Antiproliferative activity against human MCF7 cells assessed as cell growth inhibition incubated for 5 days by MTT assay; assay type: functional, cell-based; conditions: MCF7, 120 h
MDA-MB-231 = assay: Antiproliferative activity against human MDA-MB-231 cells assessed as cell growth inhibition incubated for 5 days by MTT assay; assay type: functional, cell-based; conditions: MDA-MB-231, 120 h
[3] = Plasma stability in human assessed as compound remaining at 100 uM measured after 30 mins by LC-MS/MS analysis relative to control; assay type: ADME, cell-free; conditions: read-out: Stability
[4] = Plasma stability in human assessed as compound remaining at 100 uM measured after 120 mins by LC-MS/MS analysis relative to control; assay type: ADME, cell-free; conditions: read-out: Stability
[5] = Plasma stability in human assessed as half-life at 100 uM measured upto 120 mins by LC-MS/MS analysis relative to control; assay type: ADME, cell-free
[6] = Metabolic stability in human liver microsomes assessed as half-life at 100 uM measured upto 60 mins in the presence of NADPH by LC-MS/MS analysis; assay type: ADME, Microsome
[7] = Metabolic stability in human liver microsomes assessed as compound remaining at 100 uM measured after 60 mins by LC-MS/MS analysis; assay type: ADME, Microsome; conditions: read-out: Stability
CYP2C9 = CYP2C9 (Homo sapiens, UniProt P11712); assay: Inhibition of CYP2C9 in human liver microsomes at 10 uM preincubated for 10 mins followed by addition of NADPH-regenerating system and measured after 15 mins by LC-MS/MS analysis relative to control; assay type: ADME, Microsome; conditions: time 25 min
Chain of CYP2C9 (P11712 whole entry): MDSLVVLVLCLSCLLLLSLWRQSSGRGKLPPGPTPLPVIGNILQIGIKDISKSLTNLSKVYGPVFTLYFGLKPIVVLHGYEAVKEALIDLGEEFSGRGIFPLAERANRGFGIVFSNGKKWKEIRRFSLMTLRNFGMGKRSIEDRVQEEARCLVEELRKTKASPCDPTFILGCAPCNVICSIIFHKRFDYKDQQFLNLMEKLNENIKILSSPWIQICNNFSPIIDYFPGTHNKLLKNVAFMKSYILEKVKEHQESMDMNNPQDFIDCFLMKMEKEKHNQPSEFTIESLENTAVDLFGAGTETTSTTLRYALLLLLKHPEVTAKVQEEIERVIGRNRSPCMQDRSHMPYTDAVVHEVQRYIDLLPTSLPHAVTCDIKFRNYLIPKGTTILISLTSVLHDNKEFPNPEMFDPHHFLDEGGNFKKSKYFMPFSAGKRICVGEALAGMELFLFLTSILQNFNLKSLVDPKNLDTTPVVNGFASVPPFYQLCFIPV

CYP2C19 = CYP2C19 (Homo sapiens, UniProt P33261); assay: Inhibition of CYP2C19 in human liver microsomes at 10 uM preincubated for 10 mins followed by addition of NADPH-regenerating system and measured after 15 mins by LC-MS/MS analysis relative to control; assay type: ADME, Microsome; conditions: time 25 min
Chain of CYP2C19 (P33261 whole entry): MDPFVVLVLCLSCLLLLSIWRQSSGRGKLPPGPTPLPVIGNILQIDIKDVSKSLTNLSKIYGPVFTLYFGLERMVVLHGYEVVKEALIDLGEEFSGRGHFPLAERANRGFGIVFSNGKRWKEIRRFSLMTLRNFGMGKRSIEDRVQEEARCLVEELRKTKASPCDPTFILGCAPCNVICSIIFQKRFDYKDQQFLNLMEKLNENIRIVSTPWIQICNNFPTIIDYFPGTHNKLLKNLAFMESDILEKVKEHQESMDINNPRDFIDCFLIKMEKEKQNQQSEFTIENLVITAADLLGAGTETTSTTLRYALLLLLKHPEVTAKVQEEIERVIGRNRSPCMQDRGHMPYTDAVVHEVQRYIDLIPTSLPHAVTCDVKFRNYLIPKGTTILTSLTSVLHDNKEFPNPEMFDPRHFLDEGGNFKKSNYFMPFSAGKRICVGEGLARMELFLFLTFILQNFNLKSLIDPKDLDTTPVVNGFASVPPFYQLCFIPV

[8] = Tmax in Sprague-Dawley rat at 10 mg/kg, po by LC-MS/MS analysis; assay type: ADME, organism-based; conditions: in vivo
[9] = AUCinfinity in Sprague-Dawley rat at 10 mg/kg, po by LC-MS/MS analysis; assay type: ADME, organism-based; set-up: time infinity, dose 10 mg/kg, route po; conditions: in vivo
[10] = Oral bioavailability in Sprague-Dawley rat at 10 mg/kg by LC-MS/MS analysis; assay type: ADME, organism-based; conditions: in vivo
[11] = Clearance in Sprague-Dawley rat at 3 mg/kg, iv by LC-MS/MS analysis; assay type: ADME, organism-based; conditions: in vivo
[12] = MRT in Sprague-Dawley rat at 3 mg/kg, iv by LC-MS/MS analysis; assay type: ADME, organism-based; conditions: in vivo
MCF7 [13] = assay: Induction of apoptosis in human MCF7 cells assessed as late apoptotic cells at 2.5 uM incubated for 48 hrs by Annexin-V-FITC/PI staining based flow cytometric analysis (reference value: 0.019 %); assay type: functional
MCF7 [14] = assay: Induction of apoptosis in human MCF7 cells assessed as late apoptotic cells at 1 uM incubated for 48 hrs by Annexin-V-FITC/PI staining based flow cytometric analysis (reference value: 0.019 %); assay type: functional
MCF7 [15] = assay: Induction of apoptosis in human MCF7 cells assessed as necrotic cells at 1 uM incubated for 48 hrs by Annexin-V-FITC/PI staining based flow cytometric analysis (reference value: 0.18 %); assay type: functional
MCF7 [16] = assay: Induction of apoptosis in human MCF7 cells assessed as early apoptotic cells at 0.50 uM incubated for 48 hrs by Annexin-V-FITC/PI staining based flow cytometric analysis (reference value: 2.83 %); assay type: functional; conditions: dose 0.5 µM
MCF7 [17] = assay: Induction of apoptosis in human MCF7 cells assessed as late apoptotic cells at 0.50 uM incubated for 48 hrs by Annexin-V-FITC/PI staining based flow cytometric analysis (reference value: 0.019 %); assay type: functional; conditions: dose 0.5 µM
MCF7 [18] = assay: Induction of apoptosis in human MCF7 cells assessed as necrotic cells at 0.25 uM incubated for 48 hrs by Annexin-V-FITC/PI staining based flow cytometric analysis (reference value: 0.18 %); assay type: functional
MCF7 [19] = assay: Induction of apoptosis in human MCF7 cells assessed as viable cells at 0.10 uM incubated for 48 hrs by Annexin-V-FITC/PI staining based flow cytometric analysis (reference value: 97 %); assay type: functional; conditions: dose 0.1 µM
MCF7 [20] = assay: Induction of apoptosis in human MCF7 cells assessed as late apoptotic cells at 0.10 uM incubated for 48 hrs by Annexin-V-FITC/PI staining based flow cytometric analysis (reference value: 0.019 %); assay type: functional; conditions: dose 0.1 µM
MCF7 [21] = assay: Induction of apoptosis in human MCF7 cells assessed as total apoptotic cells at 0.25 uM incubated for 48 hrs by Annexin-V-FITC/PI staining based flow cytometric analysis relative to control; assay type: functional
MCF7 [22] = assay: Induction of apoptosis in human MCF7 cells assessed as total apoptotic cells at 1 uM incubated for 48 hrs by Annexin-V-FITC/PI staining based flow cytometric analysis relative to control; assay type: functional
MCF7 [23] = assay: Induction of cell cycle arrest in human MCF7 cells assessed as G2 phase cells at 2.5 uM measured after 48 hrs by flow cytometry analysis (reference value: 31.8 %); assay type: functional
MCF7 [24] = assay: Induction of cell cycle arrest in human MCF7 cells assessed as S phase cells at 1 uM measured after 48 hrs by flow cytometry analysis (reference value: 9.31 %); assay type: functional
MCF7 [25] = assay: Induction of cell cycle arrest in human MCF7 cells assessed as G2 phase cells at 1 uM measured after 48 hrs by flow cytometry analysis (reference value: 31.8 %); assay type: functional
MCF7 [26] = assay: Induction of cell cycle arrest in human MCF7 cells assessed as decrease in G1 phase cells at 0.50 uM measured after 48 hrs by flow cytometry analysis (reference value: 56.9 %); assay type: functional; set-up: scale not given: the % may be the effect or the level left; conditions: dose 0.5 µM
MCF7 [27] = assay: Induction of cell cycle arrest in human MCF7 cells assessed as S phase cells at 0.50 uM measured after 48 hrs by flow cytometry analysis (reference value: 9.31 %); assay type: functional; conditions: dose 0.5 µM
MCF7 [28] = assay: Induction of cell cycle arrest in human MCF7 cells assessed as decrease in G1 phase cells at 0.25 uM measured after 48 hrs by flow cytometry analysis (reference value: 56.9 %); assay type: functional; set-up: scale not given: the % may be the effect or the level left
MCF7 [29] = assay: Induction of cell cycle arrest in human MCF7 cells assessed as S phase cells at 0.25 uM measured after 48 hrs by flow cytometry analysis (reference value: 9.31 %); assay type: functional
MCF7 [30] = assay: Induction of cell cycle arrest in human MCF7 cells assessed as less G1 phase cells at 0.25 uM measured after 48 hrs by flow cytometry analysis (reference value: 0.44 %); assay type: functional
MCF7 [31] = assay: Induction of cell cycle arrest in human MCF7 cells assessed as greater G1 phase cells at 0.25 uM measured after 48 hrs by flow cytometry analysis (reference value: 0.78 %); assay type: functional
MCF7 [32] = assay: Induction of cell cycle arrest in human MCF7 cells assessed as decrease in G1 phase cells at 0.10 uM measured after 48 hrs by flow cytometry analysis (reference value: 56.9 %); assay type: functional; set-up: scale not given: the % may be the effect or the level left; conditions: dose 0.1 µM
MCF7 [33] = assay: Induction of cell cycle arrest in human MCF7 cells assessed as G2 phase cells at 0.10 uM measured after 48 hrs by flow cytometry analysis (reference value: 31.8 %); assay type: functional; conditions: dose 0.1 µM
MCF7 [34] = assay: Induction of cell cycle arrest in human MCF7 cells assessed as greater G1 phase cells at 0.10 uM measured after 48 hrs by flow cytometry analysis (reference value: 0.78 %); assay type: functional; conditions: dose 0.1 µM

Chain of Serine/threonine-protein kinase PAK 4 (O96013 whole entry): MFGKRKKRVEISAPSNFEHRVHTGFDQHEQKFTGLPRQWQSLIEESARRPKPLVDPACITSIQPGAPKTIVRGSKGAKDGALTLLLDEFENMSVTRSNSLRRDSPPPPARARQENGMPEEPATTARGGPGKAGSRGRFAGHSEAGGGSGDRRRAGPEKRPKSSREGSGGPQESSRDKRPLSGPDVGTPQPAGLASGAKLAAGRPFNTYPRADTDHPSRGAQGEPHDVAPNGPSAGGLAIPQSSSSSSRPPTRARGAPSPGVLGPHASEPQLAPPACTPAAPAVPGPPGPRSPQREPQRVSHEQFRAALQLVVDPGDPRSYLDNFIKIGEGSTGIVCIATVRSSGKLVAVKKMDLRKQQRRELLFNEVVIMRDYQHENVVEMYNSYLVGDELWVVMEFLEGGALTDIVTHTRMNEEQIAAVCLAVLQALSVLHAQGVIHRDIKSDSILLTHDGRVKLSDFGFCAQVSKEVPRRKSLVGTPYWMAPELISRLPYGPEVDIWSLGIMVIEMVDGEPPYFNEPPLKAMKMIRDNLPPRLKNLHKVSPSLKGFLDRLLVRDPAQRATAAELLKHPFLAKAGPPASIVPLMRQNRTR

Work on `Cc1cc(Nc2nc(NCc3ccc(F)cc3F)nc3c2cnn3C2CCOCC2)n[nH]1` yielded an IC50 [1] of 1750 nM, an IC50 (MCF7 [2]) of 360 nM and an IC50 (MDA-MB-231) of 2880 nM. It also gave a remaining at 0.5 h, 100 µM [3] of 96.6%, a remaining at 2 h, 100 µM [4] of 107% and a half-life at 100 µM [5] of over 4.82 h. The half-life at 100 µM [6] was 0.493 h, the remaining at 1 h, 100 µM [7] was 106% and the inhibition at 0.25 h, 10 µM (CYP2C9) was 25.4%. It also gave an inhibition at 0.25 h, 10 µM (CYP2C19) of 32.9%, a Tmax [8] of 1.33 h and an AUC(0-inf) [9] of 301 ng·h/mL. It also gave a bioavailability [10] of 8.03%, a clearance [11] of 47.2 mL/min/kg and an MRT [12] of 1.07 h. For the same compound, the Activity (MCF7 [13]) was 10.8%, the Activity (MCF7 [14]) was 6.84% and the Activity (MCF7 [15]) was 0.69%. It also gave an Activity (MCF7 [16]) of 59.7%, an Activity (MCF7 [17]) of 7.58% and an Activity (MCF7 [18]) of 1.97%. It also gave an Activity (MCF7 [19]) of 74.9%, an Activity (MCF7 [20]) of 4.74% and an Activity (MCF7 [21]) of 30.98%. For the same compound, the Activity (MCF7 [22]) was 71.84%, the Activity (MCF7 [23]) was 67.6% and the Activity (MCF7 [24]) was 19.2%. For the same compound, the Activity (MCF7 [25]) was 58.3%, the Activity (MCF7 [26]) was 36.2% and the Activity (MCF7 [27]) was 16.9%. The Activity (MCF7 [28]) was 43.6%, the Activity (MCF7 [29]) was 10.67% and the Activity (MCF7 [30]) was 8.49%. The Activity (MCF7 [31]) was 0.68%, the Activity (MCF7 [32]) was 53.4% and the Activity (MCF7 [33]) was 38%. For the same compound, the Activity (MCF7 [34]) was 0.62%.
